Key:
[1] = target: IKZF2 ZF2 (Homo sapiens, UniProt Q96SW2+Q9UKS7); test: Degradation reporter analysis of IKZF2 ZF2; assay type: cell-based
[2] = system: endogenous, full-length WIZ; details: WSU-DLCL2 and TMD8 cells; cited from earlier work
[3] = target: human C2H2 ZF library in HEK293T cells (Homo sapiens, UniProt Q9UKS7); test: C2H2 zinc finger library screen; assay type: cell-based; details: 1 μM, 20 hours
[4] = system: human C2H2 ZF library in HEK293T cells; test: C2H2 zinc finger library screen; assay type: cell-based; details: FDR <0.01, 5,611 ZFs assayed, 1 μM, 20 hours
[5] = system: ZFs that bound CRBN-pomalidomide in the biochemical assay; assay type: cell-based, human; details: WIZ ZF7, cells
[6] = target: CRBN-pomalidomide (Alexa488DDB1ΔB-CRBN-pomalidomide-biotinIKZF1 ZF1-2-3) (Homo sapiens, UniProt Q96SW2)
CRBN-pomalidomide (Alexa488DDB1ΔB-CRBN-pomalidomide-biotinIKZF1 ZF1-2-3), sequence (Q96SW2 whole entry, stated change not applied): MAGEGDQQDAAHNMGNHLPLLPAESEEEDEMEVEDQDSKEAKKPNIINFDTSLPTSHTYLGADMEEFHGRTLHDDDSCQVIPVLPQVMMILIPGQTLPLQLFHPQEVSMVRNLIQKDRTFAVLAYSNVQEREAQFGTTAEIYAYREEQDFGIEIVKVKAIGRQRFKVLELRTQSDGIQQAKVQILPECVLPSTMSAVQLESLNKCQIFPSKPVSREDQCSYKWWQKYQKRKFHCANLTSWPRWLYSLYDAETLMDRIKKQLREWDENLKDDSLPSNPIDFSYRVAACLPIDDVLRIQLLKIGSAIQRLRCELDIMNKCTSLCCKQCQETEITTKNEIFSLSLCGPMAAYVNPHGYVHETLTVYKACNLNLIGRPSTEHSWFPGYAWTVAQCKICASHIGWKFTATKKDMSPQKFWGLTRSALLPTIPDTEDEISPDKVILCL

IKZF2 ZF2, sequence (Q9UKS7 140-162 limits assumed): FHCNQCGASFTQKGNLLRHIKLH
IKZF2 ZF2, sequence (Q96SW2 whole entry): as the sequence (Q96SW2 whole entry, stated change not applied) above
IKZF2 ZF2, sequence (Q16531 2-1140 partner limits assumed): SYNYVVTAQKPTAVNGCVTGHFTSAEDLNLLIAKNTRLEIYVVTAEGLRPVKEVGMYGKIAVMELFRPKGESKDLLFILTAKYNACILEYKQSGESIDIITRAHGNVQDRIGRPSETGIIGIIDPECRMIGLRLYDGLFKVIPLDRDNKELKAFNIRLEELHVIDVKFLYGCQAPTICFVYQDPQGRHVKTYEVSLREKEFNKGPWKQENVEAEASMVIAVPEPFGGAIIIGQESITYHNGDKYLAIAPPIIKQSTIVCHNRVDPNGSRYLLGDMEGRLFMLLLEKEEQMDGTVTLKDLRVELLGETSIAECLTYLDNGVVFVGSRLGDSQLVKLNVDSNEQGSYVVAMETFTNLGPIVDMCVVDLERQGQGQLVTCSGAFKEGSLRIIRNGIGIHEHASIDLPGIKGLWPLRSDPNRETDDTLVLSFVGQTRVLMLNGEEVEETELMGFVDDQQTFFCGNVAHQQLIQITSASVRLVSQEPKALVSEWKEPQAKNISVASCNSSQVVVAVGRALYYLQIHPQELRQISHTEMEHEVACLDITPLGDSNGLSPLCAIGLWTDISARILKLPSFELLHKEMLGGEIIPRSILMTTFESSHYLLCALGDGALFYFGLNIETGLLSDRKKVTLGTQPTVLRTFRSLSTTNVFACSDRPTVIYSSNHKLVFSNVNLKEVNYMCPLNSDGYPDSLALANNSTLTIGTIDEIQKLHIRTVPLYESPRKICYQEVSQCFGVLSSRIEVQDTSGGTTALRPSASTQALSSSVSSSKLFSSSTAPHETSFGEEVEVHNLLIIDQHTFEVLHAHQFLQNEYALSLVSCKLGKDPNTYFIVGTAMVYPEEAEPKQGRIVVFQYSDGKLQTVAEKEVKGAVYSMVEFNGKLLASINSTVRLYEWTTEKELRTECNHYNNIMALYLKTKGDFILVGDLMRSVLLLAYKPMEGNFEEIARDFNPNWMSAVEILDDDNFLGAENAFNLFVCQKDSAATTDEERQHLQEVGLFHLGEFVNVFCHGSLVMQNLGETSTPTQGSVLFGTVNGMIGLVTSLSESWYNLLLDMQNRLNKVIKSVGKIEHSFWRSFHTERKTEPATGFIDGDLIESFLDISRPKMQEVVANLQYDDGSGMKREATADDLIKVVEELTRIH
human C2H2 ZF library in HEK293T cells (Homo sapiens, UniProt Q9UKS7), sequence (Q96SW2 whole entry partner): as the sequence (Q96SW2 whole entry, stated change not applied) above

| degradation of IKZF2 ZF2 (in words) [1] | degradation of IKZF2 ZF2 in the C2H2 ZF library screen [3] | degradation of the IKZF2 ZF2 reporter ([1]; validation experiments) | Compound | degradation of endogenous, full-length WIZ [2] | number of C2H2 ZFs depleted [4] | degradation of WIZ ZF7 in the degradation reporter [5] | factor of decrease in binding affinity, ZF2-ZF1 versus ZF2-ZF3 [6] |
| --- | --- | --- | --- | --- | --- | --- | --- |
| not degraded | – | – | Cc1nc2cccc(N)c2c(=O)n1C1CCC(=O)NC1=O (stereo not shown) [CC-122] | confirmed degradation | – | – | – |
| efficiently degraded | selectively degraded | more than 40% | O=C1CC[C@H](N2Cc3c(OCc4ccc(CN5CCOCC5)cc4)cccc3C2=O)C(=O)N1 [CC-220] | – | – | – | – |
| – | – | – | Nc1cccc2c1CN(C1CCC(=O)NC1=O)C2=O (stereo not shown) [lenalidomide] | confirmed degradation | – | – | – |

| Compound | degradation of IKZF2 ZF2 (in words) [1] | degradation of IKZF2 ZF2 in the C2H2 ZF library screen [3] | degradation of the IKZF2 ZF2 reporter ([1]; validation experiments) | degradation of endogenous, full-length WIZ [2] | number of C2H2 ZFs depleted [4] | degradation of WIZ ZF7 in the degradation reporter [5] | factor of decrease in binding affinity, ZF2-ZF1 versus ZF2-ZF3 [6] |
| --- | --- | --- | --- | --- | --- | --- | --- |
| Nc1cccc2c1C(=O)N(C1CCC(=O)NC1=O)C2=O (stereo not shown) [pomalidomide] | not degraded | – | – | – | 11 | partial degradation | 6 |
